# Target: T1, Human Factor XIIa (hFXIIa) (Homo sapiens, UniProt P00748)
# T1 construct: purchased Enzyme Research Laboratories
# T1 sequence (P00748 373-615 limits assumed): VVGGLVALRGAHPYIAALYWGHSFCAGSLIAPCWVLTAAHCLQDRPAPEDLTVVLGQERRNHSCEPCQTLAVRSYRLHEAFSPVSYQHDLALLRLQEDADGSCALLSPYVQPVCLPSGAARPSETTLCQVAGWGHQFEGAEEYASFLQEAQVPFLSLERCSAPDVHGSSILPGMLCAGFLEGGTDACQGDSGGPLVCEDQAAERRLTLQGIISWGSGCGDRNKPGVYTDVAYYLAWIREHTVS
# T1 sequence (P00748 20-372 partner limits assumed): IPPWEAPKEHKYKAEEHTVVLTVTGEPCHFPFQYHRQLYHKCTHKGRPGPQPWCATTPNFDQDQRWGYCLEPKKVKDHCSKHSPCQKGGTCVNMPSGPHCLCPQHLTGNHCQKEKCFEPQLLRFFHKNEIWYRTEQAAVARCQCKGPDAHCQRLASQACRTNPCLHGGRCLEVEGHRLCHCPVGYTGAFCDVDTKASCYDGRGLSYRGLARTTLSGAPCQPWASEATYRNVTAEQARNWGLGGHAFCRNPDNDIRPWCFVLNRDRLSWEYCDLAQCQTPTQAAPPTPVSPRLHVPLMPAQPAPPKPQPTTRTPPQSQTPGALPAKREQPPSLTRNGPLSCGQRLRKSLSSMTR
# Assay: Determination of Human Factor XIIa (hFXIIa) inhibition, fluorogenic substrate IC50 assay
# Type: biochemical
# Settings: fluorogenic substrate H-DPro-Phe-Arg-AFC at Km, 25° C., read-out: Human FXIIa IC50
# Description: Determination of Human Factor XIIa (hFXIIa) inhibition
# The Km for the cleavage of the substrate by hFXIIa was determined by standard transformation of the Michaelis-Menten equation, with subsequent inhibition assays performed at substrate Km concentration.
row,SMILES,IC50 [nM]
1,"CS(=O)(=O)NCCN1CCc2ccc(N3CCc4c(C(=O)NCC5CC5)nn(-c5cccc(Cl)c5)c4C3=O)cc2C1 [Example 1083, 1-(3-chlorophenyl)-N-(cyclopropylmethyl)-6-(2-(2-(methylsulfonamido)ethyl)-1,2,3,4-tetrahydroisoquinolin-7-yl)-7-oxo-4,5,6,7-tetrahydro-1H-pyrazolo[3,4-c]pyridine-3-carboxamide]",100 to 300
2,"CNC(=O)NCCN1CCc2ccc(N3CCc4c(C(=O)NCC5CC5)nn(-c5cccc(Cl)c5)c4C3=O)cc2C1 [Example 1084, 1-(3-chlorophenyl)-N-(cyclopropylmethyl)-6-(2-(2-(3-methylureido)ethyl)-1,2,3,4-tetrahydroisoquinolin-7-yl)-7-oxo-4,5,6,7-tetrahydro-1H-pyrazolo[3,4-c]pyridine-3-carboxamide]",100 to 300
3,"CCN1CCc2ccc(N3CCc4c(C(=O)NCc5cc(C)n[nH]5)nn(-c5cccc(Cl)c5)c4C3=O)cc2C1 [Example 1086, 1-(3-chlorophenyl)-6-(2-ethyl-1,2,3,4-tetrahydroisoquinolin-7-yl)-N-((3-methyl-1H-pyrazol-5-yl)methyl)-7-oxo-4,5,6,7-tetrahydro-1H-pyrazolo[3,4-c]pyridine-3-carboxamide]",100 to 300
4,"O=C(NCC1CC1)c1nn(-c2cccc(Cl)c2)c2c1CCN(c1ccc3c(c1)CN(CCCO)CC3)C2=O [Example 1087, 1-(3-chlorophenyl)-N-(cyclopropylmethyl)-6-(2-(3-hydroxypropyl)-1,2,3,4-tetrahydroisoquinolin-7-yl)-7-oxo-4,5,6,7-tetrahydro-1H-pyrazolo[3,4-c]pyridine-3-carboxamide]",100 to 300
5,"Cn1nccc1CNC(=O)c1nn(-c2cccc(Cl)c2)c2c1CCN(c1ccc3c(c1)CN(CCO)CC3)C2=O [Example 1088, 1-(3-chlorophenyl)-6-(2-(2-hydroxyethyl)-1,2,3,4-tetrahydroisoquinolin-7-yl)-N-((1-methyl-1H-pyrazol-5-yl)methyl)-7-oxo-4,5,6,7-tetrahydro-1H-pyrazolo[3,4-c]pyridine-3-carboxamide]",100 to 300
6,"CCN1CCc2ccc(N3CCc4c(C(=O)N[C@H]5CCOC5)nn(-c5cccc(Cl)c5)c4C3=O)cc2C1 [Example 1090, (S)-1-(3-chlorophenyl)-6-(2-ethyl-1,2,3,4-tetrahydroisoquinolin-7-yl)-7-oxo-N-(tetrahydrofuran-3-yl)-4,5,6,7-tetrahydro-1H-pyrazolo[3,4-c]pyridine-3-carboxamide]",100 to 300
7,"CCN1CCc2ccc(N3CCc4c(C(=O)N[C@@H]5CCOC5)nn(-c5cccc(Cl)c5)c4C3=O)cc2C1 [Example 1091, (R)-1-(3-chlorophenyl)-6-(2-ethyl-1,2,3,4-tetrahydroisoquinolin-7-yl)-7-oxo-N-(tetrahydrofuran-3-yl)-4,5,6,7-tetrahydro-1H-pyrazolo[3,4-c]pyridine-3-carboxamide]",100 to 300
8,"CCN1CCc2ccc(N3CCc4c(C(=O)NC5C6COCC65)nn(-c5cccc(Cl)c5)c4C3=O)cc2C1 (stereo not drawn) [Example 1093, N-(3-oxabicyclo[3.1.0]hexan-6-yl)-1-(3-chlorophenyl)-6-(2-ethyl-1,2,3,4-tetrahydroisoquinolin-7-yl)-7-oxo-4,5,6,7-tetrahydro-1H-pyrazolo[3,4-c]pyridine-3-carboxamide]",100 to 300
9,"COC(=O)CN1CCc2ccc(N3CCc4c(C(=O)NCC5CC5)nn(-c5cccc(Cl)c5)c4C3=O)cc2C1 [Example 1094, methyl 2-(7-(1-(3-chlorophenyl)-3-((cyclopropylmethyl)carbamoyl)-7-oxo-1,4,5,7-tetrahydro-6H-pyrazolo[3,4-c]pyridin-6-yl)-3,4-dihydroisoquinolin-2(1H)-yl)acetate]",1000 to 3000
10,"O=C(O)CN1CCc2ccc(N3CCc4c(C(=O)NCC5CC5)nn(-c5cccc(Cl)c5)c4C3=O)cc2C1 [Example 1095, 2-(7-(1-(3-chlorophenyl)-3-((cyclopropylmethyl)carbamoyl)-7-oxo-1,4,5,7-tetrahydro-6H-pyrazolo[3,4-c]pyridin-6-yl)-3,4-dihydroisoquinolin-2(1H)-yl)acetic acid]",1000 to 3000
11,"CC(C)(O)CN1CCc2ccc(N3CCc4c(C(=O)NCC5CC5)nn(-c5cccc(Cl)c5)c4C3=O)cc2C1 [Example 1096, 1-(3-chlorophenyl)-N-(cyclopropylmethyl)-6-(2-(2-hydroxy-2-methylpropyl)-1,2,3,4-tetrahydroisoquinolin-7-yl)-7-oxo-4,5,6,7-tetrahydro-1H-pyrazolo[3,4-c]pyridine-3-carboxamide]",300 to 1000
12,"O=C(NCC1CC1)c1nn(-c2cccc(Cl)c2)c2c1CCN(c1ccc3c(c1)CN(CC1CC1(F)F)CC3)C2=O (stereo not drawn) [Example 1097, 1-(3-chlorophenyl)-N-(cyclopropylmethyl)-6-(2-((2,2-difluorocyclopropyl)methyl)-1,2,3,4-tetrahydroisoquinolin-7-yl)-7-oxo-4,5,6,7-tetrahydro-1H-pyrazolo[3,4-c]pyridine-3-carboxamide]",1000 to 3000
13,"NCCN1CCc2ccc(N3CCc4c(C(=O)NCC5CC5)nn(-c5cccc(Cl)c5)c4C3=O)cc2C1 [Example 1098, 6-(2-(2-aminoethyl)-1,2,3,4-tetrahydroisoquinolin-7-yl)-1-(3-chlorophenyl)-N-(cyclopropylmethyl)-7-oxo-4,5,6,7-tetrahydro-1H-pyrazolo[3,4-c]pyridine-3-carboxamide]",100 to 300
14,"N#CCN1CCc2ccc(N3CCc4c(C(=O)NCC5CC5)nn(-c5cccc(Cl)c5)c4C3=O)cc2C1 [Example 1100, 1-(3-chlorophenyl)-6-(2-(cyanomethyl)-1,2,3,4-tetrahydroisoquinolin-7-yl)-N-(cyclopropylmethyl)-7-oxo-4,5,6,7-tetrahydro-1H-pyrazolo[3,4-c]pyridine-3-carboxamide]",1000 to 3000
15,"C[C@@H](O)CN1CCc2ccc(N3CCc4c(C(=O)NCC5CC5)nn(-c5cccc(Cl)c5)c4C3=O)cc2C1 [Example 1101, (R)-1-(3-chlorophenyl)-N-(cyclopropylmethyl)-6-(2-(2-hydroxypropyl)-1,2,3,4-tetrahydroisoquinolin-7-yl)-7-oxo-4,5,6,7-tetrahydro-1H-pyrazolo[3,4-c]pyridine-3-carboxamide]",300 to 1000
16,"O=C(NCC1CC1)c1nn(-c2cccc(Cl)c2)c2c1CCN(c1ccc3c(c1)CN(CC1CCCC1)CC3)C2=O [Example 1102, 1-(3-chlorophenyl)-6-(2-(cyclopentylmethyl)-1,2,3,4-tetrahydroisoquinolin-7-yl)-N-(cyclopropylmethyl)-7-oxo-4,5,6,7-tetrahydro-1H-pyrazolo[3,4-c]pyridine-3-carboxamide]",300 to 1000
17,"O=C(NCC1CC1)c1nn(-c2cccc(Cl)c2)c2c1CCN(c1ccc3c(c1)CN(C1CCC1)CC3)C2=O [Example 1103, 1-(3-chlorophenyl)-6-(2-cyclobutyl-1,2,3,4-tetrahydroisoquinolin-7-yl)-N-(cyclopropylmethyl)-7-oxo-4,5,6,7-tetrahydro-1H-pyrazolo[3,4-c]pyridine-3-carboxamide]",100 to 300
18,"O=C(NCC1CC1)c1nn(-c2cccc(Cl)c2)c2c1CCN(c1ccc3c(c1)CN(Cc1ccn[nH]1)CC3)C2=O [Example 1104, 6-(2-((1H-pyrazol-5-yl)methyl)-1,2,3,4-tetrahydroisoquinolin-7-yl)-1-(3-chlorophenyl)-N-(cyclopropylmethyl)-7-oxo-4,5,6,7-tetrahydro-1H-pyrazolo[3,4-c]pyridine-3-carboxamide]",300 to 1000

# From patent publication US20260132132A1, “3A,4,5,6-TETRAHYDRO-1 H-PYRAZOLO[3,4-C]PYRIDIN-7(7AH)-ONE DERIVATIVES AS FACTOR XIIA INHIBITORS” (KALVISTA PHARMACEUTICALS LIMITED, priority 2022, published 2026)
